Source: patent US10131652B2, “Pyrimidinyloxy benzene derivatives as herbicides” (E. I. DU PONT DE NEMOURS AND COMPANY, priority 2014, dated 2018)

How the values were obtained:
Assay in all cases: Test D pre-/postemergence plant response
Assay type in all cases: in vivo
[1] = tested on: oilseed rape (Brassica napus); conditions: Postemergence
In short: (§1)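 Plants are held in a greenhouse 13 to 15 days after spraying, then injury is rated by eye relative to controls on a 0 to 100 scale. Treatments are preemergence on freshly sown loam/sand pots or postemergence at 1- to 4-leaf stage in peat-based medium; surfactant-containing solvent formulation.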

[2] = tested on: barnyardgrass (Echinochloa crus-galli); conditions: Postemergence; for Plant response rating, Barnyardgrass: scale 0 to 100, 0 no effect, 100 complete control
In short: as §1

[3] = tested on: corn (Zea mays); conditions: Postemergence; for Plant response rating, Corn: scale 0 to 100, 0 no effect, 100 complete control
In short: as §1

[4] = tested on: lambsquarters (Chenopodium album); conditions: Postemergence
In short: as §1

[5] = tested on: large (Lg) crabgrass (Digitaria sanguinalis); conditions: Postemergence; for Plant response rating, Crabgrass, Large: scale 0 to 100, 0 no effect, 100 complete control
In short: as §1

[6] = tested on: soybean (Glycine max); conditions: Postemergence
In short: as §1

[7] = tested on: blackgrass (Alopecurus myosuroides); conditions: Postemergence; for Plant response rating, Blackgrass: scale 0 to 100, 0 no effect, 100 complete control
In short: as §1

[8] = tested on: yellow nutsedge (Cyperus esculentus); conditions: Postemergence
In short: as §1

[9] = tested on: johnsongrass (Sorghum halepense); conditions: Postemergence; for Plant response rating, Johnsongrass: scale 0 to 100, 0 no effect, 100 complete control
In short: as §1

[10] = tested on: pigweed (Amaranthus retroflexus); conditions: Postemergence
In short: as §1

[11] = tested on: ragweed (common ragweed, Ambrosia elatior); conditions: Postemergence
In short: as §1

[12] = tested on: giant foxtail (Setaria faberii); conditions: Postemergence; for Plant response rating, Foxtail, Giant: scale 0 to 100, 0 no effect, 100 complete control
In short: as §1

[13] = tested on: Italian ryegrass (Lolium multiflorum); conditions: Postemergence
In short: as §1

[14] = tested on: winter wheat (Triticum aestivum); conditions: Postemergence
In short: as §1

[15] = tested on: waterhemp (common waterhemp, Amaranthus rudis); conditions: Postemergence
In short: as §1

[16] = tested on: velvetleaf (Abutilon theophrasti); conditions: Postemergence
In short: as §1

[17] = tested on: galium (catchweed bedstraw, Galium aparine); conditions: Postemergence; for Plant response rating, Galium: scale 0 to 100, 0 no effect, 100 complete control
In short: as §1

[18] = tested on: morningglory (Ipomoea coccinea); conditions: Postemergence
In short: as §1

[19] = 31 g ai/ha, scale 0 to 100 (0 no effect, 100 complete control)
[20] = 62 g ai/ha, scale 0 to 100, 0 no effect, 100 complete control
[21] = 125 g ai/ha, scale 0 to 100, 0 no effect, 100 complete control

In the case of `CC(F)(F)c1cc(-c2ccccc2Oc2ncc(Cl)cn2)on1` [Compound 178], the “Plant response rating (scale 0 to 100), Oilseed Rape” value ([1]; 16 g ai/ha) is reported as 35, the “Oilseed Rape plant response rating” value [1, 19] is reported as 80 and the “Oilseed Rape plant response rating” value [1, 20] is reported as 80. The “Plant response rating, Oilseed Rape” value [1, 21] was 95, the “Plant response rating (scale 0 to 100), Barnyardgrass” value ([2]; 16 g ai/ha) was 10 and the “Barnyardgrass plant response rating” value [2, 19] was 15. For the same compound, the “Plant response rating, Barnyardgrass” value ([2]; 62 g ai/ha) was 10, the “Plant response rating, Barnyardgrass” value ([2]; 125 g ai/ha) was 20 and the “Plant response rating (scale 0 to 100), Corn” value ([3]; 16 g ai/ha) was 0. For the same compound, the “Corn plant response rating” value [3, 19] was 5, the “Plant response rating, Corn” value ([3]; 62 g ai/ha) was 5 and the “Plant response rating, Corn” value ([3]; 125 g ai/ha) was 10. The “Plant response rating (scale 0 to 100), Lambsquarters” value ([4]; 16 g ai/ha) was 25, the “Lambsquarters plant response rating” value [4, 19] was 70 and the “Lambsquarters plant response rating” value [4, 20] was 75. The “Plant response rating, Lambsquarters” value [4, 21] was 90, the “Plant response rating (scale 0 to 100), Crabgrass, Large” value ([5]; 16 g ai/ha) was 5 and the “Crabgrass, Large plant response rating” value [5, 19] was 10. The “Plant response rating, Crabgrass, Large” value ([5]; 62 g ai/ha) was 20, the “Plant response rating, Crabgrass, Large” value ([5]; 125 g ai/ha) was 15 and the “Plant response rating (scale 0 to 100), Soybean” value ([6]; 16 g ai/ha) was 15. The “Soybean plant response rating” value [6, 19] was 35, the “Soybean plant response rating” value [6, 20] was 35 and the “Plant response rating, Soybean” value [6, 21] was 45. The “Plant response rating (scale 0 to 100), Blackgrass” value ([7]; 16 g ai/ha) was 0, the “Blackgrass plant response rating” value [7, 19] was 5 and the “Plant response rating, Blackgrass” value ([7]; 62 g ai/ha) was 10. For the same compound, the “Plant response rating, Blackgrass” value ([7]; 125 g ai/ha) was 15, the “Plant response rating (scale 0 to 100), Nutsedge, Yellow” value ([8]; 16 g ai/ha) was 5 and the “Nutsedge, Yellow plant response rating” value [8, 19] was 5. For the same compound, the “Nutsedge, Yellow plant response rating” value [8, 20] was 10, the “Plant response rating, Nutsedge, Yellow” value [8, 21] was 5 and the “Plant response rating (scale 0 to 100), Johnsongrass” value ([9]; 16 g ai/ha) was 10. The “Johnsongrass plant response rating” value [9, 19] was 10, the “Plant response rating, Johnsongrass” value ([9]; 62 g ai/ha) was 15 and the “Plant response rating, Johnsongrass” value ([9]; 125 g ai/ha) was 10. For the same compound, the “Plant response rating (scale 0 to 100), Pigweed” value ([10]; 16 g ai/ha) was 80, the “Pigweed plant response rating” value [10, 19] was 85 and the “Pigweed plant response rating” value [10, 20] was 85. The “Plant response rating, Pigweed” value [10, 21] was 90, the “Plant response rating (scale 0 to 100), Ragweed” value ([11]; 16 g ai/ha) was 5 and the “Ragweed plant response rating” value [11, 19] was 5. For the same compound, the “Ragweed plant response rating” value [11, 20] was 20, the “Plant response rating, Ragweed” value [11, 21] was 35 and the “Plant response rating (scale 0 to 100), Foxtail, Giant” value ([12]; 16 g ai/ha) was 0. For the same compound, the “Foxtail, Giant plant response rating” value [12, 19] was 5, the “Plant response rating, Foxtail, Giant” value ([12]; 62 g ai/ha) was 5 and the “Plant response rating, Foxtail, Giant” value ([12]; 125 g ai/ha) was 25. The “Plant response rating (scale 0 to 100), Ryegrass, Italian” value ([13]; 16 g ai/ha) was 0, the “Ryegrass, Italian plant response rating” value [13, 19] was 0 and the “Ryegrass, Italian plant response rating” value [13, 20] was 5. The “Plant response rating, Ryegrass, Italian” value [13, 21] was 5, the “Plant response rating (scale 0 to 100), Wheat” value ([14]; 16 g ai/ha) was 0 and the “Wheat plant response rating” value [14, 19] was 5. For the same compound, the “Wheat plant response rating” value [14, 20] was 5, the “Plant response rating, Wheat” value [14, 21] was 10 and the “Plant response rating (scale 0 to 100), Waterhemp” value ([15]; 16 g ai/ha) was 70. The “Waterhemp plant response rating” value [15, 19] was 80, the “Waterhemp plant response rating” value [15, 20] was 85 and the “Plant response rating, Waterhemp” value [15, 21] was 90. For the same compound, the “Plant response rating (scale 0 to 100), Velvetleaf” value ([16]; 16 g ai/ha) was 60, the “Velvetleaf plant response rating” value [16, 19] was 40 and the “Velvetleaf plant response rating” value [16, 20] was 60. For the same compound, the “Plant response rating, Velvetleaf” value [16, 21] was 75, the “Plant response rating (scale 0 to 100), Galium” value ([17]; 16 g ai/ha) was 75 and the “Galium plant response rating” value [17, 19] was 80. For the same compound, the “Plant response rating, Galium” value ([17]; 62 g ai/ha) was 98, the “Plant response rating, Galium” value ([17]; 125 g ai/ha) was 85 and the “Plant response rating (scale 0 to 100), Morningglory” value ([18]; 16 g ai/ha) was 70. The “Morningglory plant response rating” value [18, 19] was 100, the “Morningglory plant response rating” value [18, 20] was 100 and the “Plant response rating, Morningglory” value [18, 21] was 90.
